Test system: 415267-285-R-J2-PDC complex spheroid viability
Test: Anticancer human tumor 415267-285-R-J2-PDC patient-derived breast carcinoma cell line growth inhibition [POLQ]
Settings: for IC50: curve of first compound; for viability, T/C: stronger effect = lower value
In short: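 Complex spheroid viability model combining PDC tumour cells with endothelial (HUVEC) and MSC stromal cells. Novobiocin, ART-558 or RP6685 were tested singly and in combination with standard and investigational anticancer drugs. Each was titrated in half-log steps from near clinical Cmax, or from 10 microM where Cmax was unknown.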

[1] = second compound 0.0316 µM, first compound 0.00316 µM
[2] = second compound 0.0316 µM, first compound 0.01 µM
[3] = second compound 0.0316 µM, first compound 0.0316 µM
[4] = second compound 0.0316 µM, first compound 0.1 µM
[5] = second compound 0.1 µM, first compound 0.00316 µM
[6] = second compound 0.1 µM, first compound 0.01 µM
[7] = second compound 0.1 µM, first compound 0.0316 µM
[8] = second compound 0.1 µM, first compound 0.1 µM
[9] = second compound 0.316 µM, first compound 0.00316 µM
[10] = second compound 0.316 µM, first compound 0.01 µM
[11] = second compound 0.316 µM, first compound 0.0316 µM
[12] = second compound 0.316 µM, first compound 0.1 µM
[13] = second compound 1 µM, first compound 0.00316 µM
[14] = second compound 1 µM, first compound 0.01 µM
[15] = second compound 1 µM, first compound 0.0316 µM
[16] = second compound 1 µM, first compound 0.1 µM
[17] = second compound 3.16 µM, first compound 0.00316 µM
[18] = second compound 3.16 µM, first compound 0.01 µM
[19] = second compound 3.16 µM, first compound 0.0316 µM
[20] = second compound 3.16 µM, first compound 0.1 µM
[21] = second compound 10 µM, first compound 0.00316 µM
[22] = second compound 10 µM, first compound 0.01 µM
[23] = second compound 10 µM, first compound 0.0316 µM
[24] = second compound 10 µM, first compound 0.1 µM
[25] = second compound 0.0316 µM, first compound 0.316 µM
[26] = second compound 0.0316 µM, first compound 1 µM
[27] = second compound 0.1 µM, first compound 0.316 µM
[28] = second compound 0.1 µM, first compound 1 µM
[29] = second compound 0.316 µM, first compound 0.316 µM
[30] = second compound 0.316 µM, first compound 1 µM
[31] = second compound 1 µM, first compound 0.316 µM
[32] = second compound 1 µM, first compound 1 µM
[33] = second compound 3.16 µM, first compound 0.316 µM
[34] = second compound 3.16 µM, first compound 1 µM
[35] = second compound 10 µM, first compound 0.316 µM
[36] = second compound 10 µM, first compound 1 µM
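Further: spheroids exposed to compounds for one week before readout.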
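Wherever viability, T/C is given: luminescence used as stand-in measure of viable cells; 100% = DMSO vehicle control viability.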

CC[C@@]1(O)C(=O)OCc2c1cc1n(c2=O)Cc2cc3c(CN(C)C)c(O)ccc3nc2-1 + Nc1ccc(C#CCN(C(=O)Cc2ncc(C(F)(F)F)cc2C(F)(F)F)c2ccc(F)cc2)nn1
IC50 (second compound 0.0316 µM): 24.2 nM
IC50 (second compound 0.1 µM): 23.2 nM
IC50 (second compound 0.316 µM): 25.8 nM
IC50 (second compound 1 µM): 24.3 nM
IC50 (second compound 3.16 µM): 22.5 nM
IC50 (second compound 10 µM): 23.8 nM
viability, T/C (second compound 0.0316 µM, first compound 0.000316 µM): 102%
viability, T/C (second compound 0.0316 µM, first compound 0.001 µM): 101%
viability, T/C [1]: 98.6%
viability, T/C [2]: 93.3%
viability, T/C [3]: 37%
viability, T/C [4]: 8.63%
viability, T/C (second compound 0.1 µM, first compound 0.000316 µM): 116%
viability, T/C (second compound 0.1 µM, first compound 0.001 µM): 102%
viability, T/C [5]: 96.8%
viability, T/C [6]: 98.2%
viability, T/C [7]: 32.5%
viability, T/C [8]: 8.01%
viability, T/C (second compound 0.316 µM, first compound 0.000316 µM): 115%
viability, T/C (second compound 0.316 µM, first compound 0.001 µM): 98.2%
viability, T/C [9]: 94.2%
viability, T/C [10]: 105%
viability, T/C [11]: 38.5%
viability, T/C [12]: 5.29%
viability, T/C (second compound 1 µM, first compound 0.000316 µM): 120%
viability, T/C (second compound 1 µM, first compound 0.001 µM): 96.2%
viability, T/C [13]: 98.8%
viability, T/C [14]: 101%
viability, T/C [15]: 33.4%
viability, T/C [16]: 7.54%
viability, T/C (second compound 3.16 µM, first compound 0.000316 µM): 107%
viability, T/C (second compound 3.16 µM, first compound 0.001 µM): 103%
viability, T/C [17]: 97.6%
viability, T/C [18]: 115%
viability, T/C [19]: 26.7%
viability, T/C [20]: 9.06%
viability, T/C (second compound 10 µM, first compound 0.000316 µM): 113%
viability, T/C (second compound 10 µM, first compound 0.001 µM): 106%
viability, T/C [21]: 98.9%
viability, T/C [22]: 104%
viability, T/C [23]: 32.2%
viability, T/C [24]: 8.26%

CCc1c2c(nc3ccc(O)cc13)-c1cc3c(c(=O)n1C2)COC(=O)[C@]3(O)CC + Nc1ccc(C#CCN(C(=O)Cc2ncc(C(F)(F)F)cc2C(F)(F)F)c2ccc(F)cc2)nn1
IC50 (second compound 0.0316 µM): 3.71 nM
IC50 (second compound 0.1 µM): 4.23 nM
IC50 (second compound 0.316 µM): 3.49 nM
IC50 (second compound 1 µM): < 3.16 nM
IC50 (second compound 3.16 µM): < 3.16 nM
IC50 (second compound 10 µM): < 3.16 nM
viability, T/C [1]: 56.2%
viability, T/C [2]: 12.2%
viability, T/C [3]: 4.64%
viability, T/C [4]: 3.13%
viability, T/C [25]: 1.82%
viability, T/C [26]: 1.11%
viability, T/C [5]: 63.5%
viability, T/C [6]: 10.5%
viability, T/C [7]: 4.81%
viability, T/C [8]: 3.2%
viability, T/C [27]: 2.14%
viability, T/C [28]: 1.01%
viability, T/C [9]: 53.6%
viability, T/C [10]: 11.3%
viability, T/C [11]: 4.02%
viability, T/C [12]: 2.64%
viability, T/C [29]: 2.39%
viability, T/C [30]: 1.12%
viability, T/C [13]: 46.9%
viability, T/C [14]: 9.28%
viability, T/C [15]: 4.2%
viability, T/C [16]: 3.14%
viability, T/C [31]: 2.27%
viability, T/C [32]: 0.96%
viability, T/C [17]: 42.7%
viability, T/C [18]: 9.28%
viability, T/C [19]: 5.9%
viability, T/C [20]: 3.54%
viability, T/C [33]: 2.55%
viability, T/C [34]: 0.98%
viability, T/C [21]: 32.5%
viability, T/C [22]: 9.81%
viability, T/C [23]: 4.81%
viability, T/C [24]: 2.88%
viability, T/C [35]: 2.6%
viability, T/C [36]: 1.04%

CNCc1ccc(-c2[nH]c3cc(F)cc4c3c2CCNC4=O)cc1 + Nc1ccc(C#CCN(C(=O)Cc2ncc(C(F)(F)F)cc2C(F)(F)F)c2ccc(F)cc2)nn1
IC50 (second compound 0.0316 µM): > 10000 nM
IC50 (second compound 0.1 µM): > 10000 nM
IC50 (second compound 0.316 µM): > 10000 nM
IC50 (second compound 1 µM): > 10000 nM
IC50 (second compound 3.16 µM): > 10000 nM
IC50 (second compound 10 µM): > 10000 nM
viability, T/C [3]: 98.9%
viability, T/C [4]: 107%
viability, T/C [25]: 91.1%
viability, T/C [26]: 84.6%
viability, T/C (second compound 0.0316 µM, first compound 3.16 µM): 91.9%
viability, T/C (second compound 0.0316 µM, first compound 10 µM): 103%
viability, T/C [7]: 89.7%
viability, T/C [8]: 105%
viability, T/C [27]: 93.2%
viability, T/C [28]: 87.9%
viability, T/C (second compound 0.1 µM, first compound 3.16 µM): 101%
viability, T/C (second compound 0.1 µM, first compound 10 µM): 102%
viability, T/C [11]: 98.9%
viability, T/C [12]: 93.2%
viability, T/C [29]: 91.4%
viability, T/C [30]: 106%
viability, T/C (second compound 0.316 µM, first compound 3.16 µM): 94.4%
viability, T/C (second compound 0.316 µM, first compound 10 µM): 108%
viability, T/C [15]: 97.3%
viability, T/C [16]: 98.7%
viability, T/C [31]: 92.9%
viability, T/C [32]: 98.6%
viability, T/C (second compound 1 µM, first compound 3.16 µM): 106%
viability, T/C (second compound 1 µM, first compound 10 µM): 118%
viability, T/C [19]: 91.1%
viability, T/C [20]: 100%
viability, T/C [33]: 94%
viability, T/C [34]: 96.5%
viability, T/C (second compound 3.16 µM, first compound 3.16 µM): 109%
viability, T/C (second compound 3.16 µM, first compound 10 µM): 107%
viability, T/C [23]: 101%
viability, T/C [24]: 97.6%
viability, T/C [35]: 105%
viability, T/C [36]: 105%
viability, T/C (second compound 10 µM, first compound 3.16 µM): 113%
viability, T/C (second compound 10 µM, first compound 10 µM): 110%
